Source: publication PMC9395446, “First-in-human phase 1/1b study to evaluate sitravatinib in patients with advanced solid tumors” (Investigational New Drugs, 2022)

Test: Safety in phase 1/1b study (DLTs, TRAEs, TEAEs; CTCAE v4.03)
Format: in vivo, human
Text: Safety assessments included evaluation of DLTs, AEs, physical examinations, vital sign measurements, electrocardiogram recordings and laboratory tests.
A DLT was defined as a grade ≥ 4 hematologic abnormality lasting ≥ 4 days; grade 3 thrombocytopenia with clinically significant bleeding; febrile neutropenia; clinically significant grade ≥ 3 non-hematologic AEs not related to underlying malignancy; intolerable grade 2 AEs; or toxicity resulting in an inability to deliver 80% of the dose during the first treatment cycle.
The safety population included all patients who received ≥ 1 dose of sitravatinib. […] The PK evaluable population included all patients with sufficient concentration-time data for PK parameter evaluation. The modified intent-to-treat (mITT) population included all phase 1b patients who received ≥ 1 dose of study drug.

COCCNCc1ccc(-c2cc3nccc(Oc4ccc(NC(=O)C5(C(=O)Nc6ccc(F)cc6)CC5)cc4F)c3s2)nc1 [sitravatinib, Sitravatinib]
Patients discontinued due to TRAEs (120 mg): 11.3%
Patients with grade ≥ 3 TRAEs (120 mg arm): 51.6%
Patients with serious TRAEs (120 mg arm): 8.1%
ALT increased TEAE, any grade (120 mg phase 1b): 17 (27.4) n (%)
ALT increased TEAE, grade ≥3 (120 mg phase 1b): 1 (1.6) n (%)
ALT increased TRAE, any grade (120 mg phase 1b): 15 (24.2) n (%)
ALT increased TRAE, grade ≥3 (120 mg phase 1b): 1 (1.6) n (%)
AST increased TEAE, any grade (120 mg phase 1b): 16 (25.8) n (%)
AST increased TEAE, grade ≥3 (120 mg phase 1b): 0 n (%)
AST increased TRAE, any grade (120 mg phase 1b): 14 (22.6) n (%)
AST increased TRAE, grade ≥3 (120 mg phase 1b): 0 n (%)
Abdominal pain TEAE, any grade (120 mg phase 1b): 14 (22.6) n (%)
Abdominal pain TEAE, grade ≥3 (120 mg phase 1b): 3 (4.8) n (%)
Abdominal pain TRAE, any grade (120 mg phase 1b): 8 (12.9) n (%)
Abdominal pain TRAE, grade ≥3 (120 mg phase 1b): 0 n (%)
Anemia TEAE, any grade (120 mg phase 1b): 10 (16.1) n (%)
Anemia TEAE, grade ≥3 (120 mg phase 1b): 3 (4.8) n (%)
Any TEAE (120 mg phase 1b): 60 (96.8) n (%)
Any TRAE (120 mg phase 1b): 58 (93.5) n (%)
Asthenia TEAE, any grade (120 mg phase 1b): 7 (11.3) n (%)
Asthenia TEAE, grade ≥3 (120 mg phase 1b): 0 n (%)
Back pain TEAE, any grade (120 mg phase 1b): 6 (9.7) n (%)
Back pain TEAE, grade ≥3 (120 mg phase 1b): 0 n (%)
Blood and lymphatic system disorders TEAE, any grade (120 mg phase 1b): 16 (25.8) n (%)
Blood and lymphatic system disorders TEAE, grade ≥3 (120 mg phase 1b): 7 (11.3) n (%)
Blood creatinine increased TEAE, any grade (120 mg phase 1b): 3 (4.8) n (%)
Blood creatinine increased TEAE, grade ≥3 (120 mg phase 1b): 0 n (%)
Cardiac disorders TEAE, any grade (120 mg phase 1b): 6 (9.7) n (%)
Cardiac disorders TEAE, grade ≥3 (120 mg phase 1b): 2 (3.2) n (%)
Constipation TEAE, any grade (120 mg phase 1b): 21 (33.9) n (%)
Constipation TEAE, grade ≥3 (120 mg phase 1b): 0 n (%)
Constipation TRAE, any grade (120 mg phase 1b): 11 (17.7) n (%)
Constipation TRAE, grade ≥3 (120 mg phase 1b): 0 n (%)
Cough TEAE, any grade (120 mg phase 1b): 7 (11.3) n (%)
Cough TEAE, grade ≥3 (120 mg phase 1b): 0 n (%)
Decreased appetite TEAE, any grade (120 mg phase 1b): 21 (33.9) n (%)
Decreased appetite TEAE, grade ≥3 (120 mg phase 1b): 2 (3.2) n (%)
Decreased appetite TRAE, any grade (120 mg phase 1b): 17 (27.4) n (%)
Decreased appetite TRAE, grade ≥3 (120 mg phase 1b): 1 (1.6) n (%)
Dehydration TEAE, any grade (120 mg phase 1b): 8 (12.9) n (%)
Dehydration TEAE, grade ≥3 (120 mg phase 1b): 0 n (%)
Diarrhea TEAE, any grade (120 mg phase 1b): 36 (58.1) n (%)
Diarrhea TEAE, grade ≥3 (120 mg phase 1b): 4 (6.5) n (%)
Diarrhea TRAE, any grade (120 mg phase 1b): 31 (50.0) n (%)
Diarrhea TRAE, grade ≥3 (120 mg phase 1b): 4 (6.5) n (%)
Dizziness TEAE, any grade (120 mg phase 1b): 10 (16.1) n (%)
Dizziness TEAE, grade ≥3 (120 mg phase 1b): 0 n (%)
Dizziness TRAE, any grade (120 mg phase 1b): 6 (9.7) n (%)
Dizziness TRAE, grade ≥3 (120 mg phase 1b): 0 n (%)
Dry mouth TEAE, any grade (120 mg phase 1b): 7 (11.3) n (%)
Dry mouth TEAE, grade ≥3 (120 mg phase 1b): 0 n (%)
Dry mouth TRAE, any grade (120 mg phase 1b): 7 (11.3) n (%)
Dry mouth TRAE, grade ≥3 (120 mg phase 1b): 0 n (%)
Dysphonia TEAE, any grade (120 mg phase 1b): 16 (25.8) n (%)
Dysphonia TEAE, grade ≥3 (120 mg phase 1b): 0 n (%)
Dysphonia TRAE, any grade (120 mg phase 1b): 12 (19.4) n (%)
Dysphonia TRAE, grade ≥3 (120 mg phase 1b): 0 n (%)
Dyspnea TEAE, any grade (120 mg phase 1b): 5 (8.1) n (%)
Dyspnea TEAE, grade ≥3 (120 mg phase 1b): 1 (1.6) n (%)
Edema peripheral TEAE, any grade (120 mg phase 1b): 6 (9.7) n (%)
Edema peripheral TEAE, grade ≥3 (120 mg phase 1b): 0 n (%)
Endocrine disorders TEAE, any grade (120 mg phase 1b): 20 (32.3) n (%)
Fatigue TEAE, any grade (120 mg phase 1b): 26 (41.9) n (%)
Fatigue TEAE, grade ≥3 (120 mg phase 1b): 7 (11.3) n (%)
Fatigue TRAE, any grade (120 mg phase 1b): 21 (33.9) n (%)
Fatigue TRAE, grade ≥3 (120 mg phase 1b): 6 (9.7) n (%)
Gastrointestinal disorders TEAE, any grade (120 mg phase 1b): 53 (85.5) n (%)
General disorders and administration site conditions TEAE, any grade (120 mg phase 1b): 38 (61.3) n (%)
General disorders and administration site conditions TEAE, grade ≥3 (120 mg phase 1b): 8 (12.9) n (%)
Headache TEAE, grade ≥3 (120 mg phase 1b): 1 (1.6) n (%)
Hypertension TEAE, any grade (120 mg phase 1b): 25 (40.3) n (%)
Hypertension TEAE, grade ≥3 (120 mg phase 1b): 12 (19.4) 12 (19.4) n (%)
Hypertension TRAE, any grade (120 mg phase 1b): 24 (38.7) n (%)
Hypertension TRAE, grade ≥3 (120 mg phase 1b): 11 (17.7) n (%)
Hypokalemia TEAE, any grade (120 mg phase 1b): 4 (6.5) n (%)
Hypokalemia TEAE, grade ≥3 (120 mg phase 1b): 0 n (%)
Hypomagnesemia TEAE, any grade (120 mg phase 1b): 4 (6.5) n (%)
Hypomagnesemia TEAE, grade ≥3 (120 mg phase 1b): 0 n (%)
Hyponatremia TEAE, any grade (120 mg phase 1b): 6 (9.7) n (%)
